Results: ChEMBL document CHEMBL1135979, “Novel sigma receptor ligands. Part 2. SAR of spiro[[2]benzopyran-1,4'-piperidines] and spiro[[2]benzofuran-1,4'-piperidines] with carbon substituents in position 3” (J Med Chem, 2002)

These molecules were tested against Sigma-2 receptor (Rattus norvegicus) (assay: Ability to displace [3H]ditolylguanidine in the presence of 100 nM (+)-pentazocine from Sigma opioid receptor type 2 of rat liver).

Row | Ki [nM] | SMILES
1 | 513 | OC1Cc2ccccc2C2(CCN(Cc3ccccc3)CC2)O1 (stereo not drawn)

What follows are molecules tested against Sigma non-opioid intracellular receptor 1 (Cavia porcellus) (assay: Ability to displace [3H](+)-pentazocine from Sigma opioid receptor type 1 of guinea pig brain).

Row | Ki [nM] | SMILES
2 | 2.17 | OC1Cc2ccccc2C2(CCN(Cc3ccccc3)CC2)O1 (stereo not drawn)

Species: Rattus norvegicus
Assay: Ratio of binding affinity towards Sigma opioid receptor type 1 versus Sigma opioid receptor type 2

Row | SMILES | Selectivity
3 | OC1Cc2ccccc2C2(CCN(Cc3ccccc3)CC2)O1 (stereo not drawn) | 236
4 | CCOC(=O)C1OC2(CCN(Cc3ccccc3)CC2)c2ccccc21 (stereo not drawn) | 796
5 | CCOC(=O)C1Cc2ccccc2C2(CCN(Cc3ccccc3)CC2)O1 (stereo not drawn) | 1130
6 | CCOC(=O)CC1Cc2ccccc2C2(CCN(Cc3ccccc3)CC2)O1 (stereo not drawn) | 124
7 | CCOC(=O)CC1OC2(CCN(Cc3ccccc3)CC2)c2ccccc21 (stereo not drawn) | 449
8 | N#CCC1OC2(CCN(Cc3ccccc3)CC2)c2ccccc21 (stereo not drawn) | 768
9 | CNCCC1Cc2ccccc2C2(CCN(Cc3ccccc3)CC2)O1 (stereo not drawn) | 29

The next lines start with the values.

Row | Selectivity | SMILES
10 | 180 | O=CCC1Cc2ccccc2C2(CCN(Cc3ccccc3)CC2)O1 (stereo not drawn)
11 | 292 | OCC1Cc2ccccc2C2(CCN(Cc3ccccc3)CC2)O1 (stereo not drawn)
12 | 295 | N#CCC1Cc2ccccc2C2(CCN(Cc3ccccc3)CC2)O1 (stereo not drawn)
13 | 668 | OCCC1Cc2ccccc2C2(CCN(Cc3ccccc3)CC2)O1 (stereo not drawn)
